This note sets out measurements from patent US20260184692A1, “HETEROCYCLIC COMPOUNDS, PREPARATION METHODS AND USES THEREOF” (InventisBio Co., Ltd., priority 2022, published 2026).

The IC50 is the concentration that gives 50% inhibition. As a reminder, the fraction unbound is the share of the substance not bound to proteins or other matrix. Low values mean extensive binding, high ones weak binding. For orientation: CLint scaled means a measure of how fast metabolising enzymes remove a compound, apart from limits set by blood flow. Read a low CLint scaled as greater metabolic stability. Broadly, the MRT is a mean duration of stay, worked out from the concentration-time curve.

In one data set the test system is OVCAR3 Cells. Description: OVCAR3 Cell Viability Assay (CellTiter-Glo). The format is cell-based. The conditions noted are these: Homo sapiens, OVCAR-3, 144 h, 6 days incubation, read-out: OVCAR3 CTG IC50. Here is the method: (§1) OVCAR3 Cells (ATCC, Cat #HTB-161) were seeded at a density of 2000 cells/well in a 96-well clear bottom plate (Greiner, Cat #655098) in 100 μL of complete media (RPMI1640+20% FBS+0.01 mg/mL human insulin). One hundred microliter of complete media was added into the blank well (column 1) for low control. Cells were allowed to adhere to the plate overnight in the incubator at 37° C., 5% CO2. On the following day, 0.5 μL of serially-diluted compounds were added to the cells (columns 2-10) and incubated for 6 days at 37 C, 5% CO2 (final 0.5% DMSO concentration); 0.5 μL of DMSO solution was added into the wells (column 11) for high control. Cell viability was detected according to the CellTiter-Glo Luminescent Cell Viability Assay Kit (Promega, Cat #G7573). Luminescence was recorded on the Tecan Spark plate reader. Inhibition rate (IR) of the tested compounds was determined by the following formula: IR (%)=(1−(RLUcompound−RLUlow control)/(RLUhigh control−RLUlow control))×100%. The IC50 value was calculated using the non-linear regression equation: Y=Bottom+(Top−Bottom)/(1+10^((Log IC50−X)×HillSlope)), where X is Log of compound concentration, Y is percent inhibition (IR (%)), Top and Bottom are plateaus in same units as Y.
Background: ATP-based viability assays read luminescence as a measure of living cells.

Data set [1] is described as follows: Human Plasma Protein Binding Assay (dialysis). The format is in vitro ADME. The conditions noted are these: 1 μM compound, dialysis 6 hr at 37 °C. How it is done: The plasma protein binding of compounds in human plasma was determined using a dialysis method. The dialysis membrane strips were prepared by soaking them in ultra-pure water for about 1 hr at room temperature, followed by separation and soaking in ethanol:water (20:80 v:v) for about 20 min, and a final rinse with ultra-pure water. Prior to use, the membranes were rinsed and soaked for another 20 min in ultra-pure water.
The blank plasma samples were thawed, centrifuged and verified its pH values. Only the plasma with pH between 7.0-8.0 was used in the experiment. The final concentration of compound in the spiked plasma is 1 μM, with final DMSO<=1%. All samples were prepared in triplicates. The time zero (T0) samples was used for determining the recovery of the compound of interest after dialysis. It was prepared in the same way as other dialysis samples except it was stored at 2-8° C. before LC-MS/MS analysis.
The other spiked plasma samples were loaded onto the dialysis device and incubated at and 37±1° C. with 5% CO2 for 6 hr. At the end of the dialysis, aliquots of samples from the plasma and buffer sides of the dialysis device were taken and processed for LC-MS/MS analysis.
The % Unbound, % Bound, and % Recovery of the compounds were calculated from the peak area ratios of the analyte and internal standard in the plasma and buffer samples as shown in the following equations:
[formula] [formula] [formula] • where [F] is the peak area ratio of analyte/internal standard on the buffer (receiver) side of the membrane; [T] is the peak area ratio of analyte/internal standard on the plasma (donor) side of the membrane; [T0] is the peak area ratio of analyte/internal standard in the plasma sample at time zero.

Data set [2] is described as follows: Human Microsomal Clearance Assay. The format is in vitro ADME. The conditions noted are these: pH 7.4, human liver microsomes 0.5 mg/mL, 1 μM compound, 2 mM NADPH; for CLint scaled at 1 μM: in vitro intrinsic clearance. Here is the method: This study aimed to assess the metabolic stability of a compound in human liver microsomes using a microsomal clearance assay.
A mixture containing 100 mM potassium phosphate, pH 7.4, 0.5 mg/mL liver microsomes, 2 mM NADPH, and 1 μM compound were prepared and added to 96-well plate. The plates were then incubated at 37° C. for different time points (0, 5, 15, 30, 45 minutes) and the reaction was stopped with acetonitrile solution containing an internal standard. The samples were then analyzed by LC/MS/MS to determine how much of the compound remained at each time point. The elimination rate constant and half-life were calculated from the data as follows: Elimination rate constant (k)=−slope; Half-life (T1/2)=0.693/k.
The in vitro intrinsic clearance, Clint, was calculated from the T1/2 as follows: Clint=(0.693/T1/2)×(1/(microsomal protein concentration (0.5 mg/mL)))×Physiological Scaling Factor.
(Liver microsomes are a subcellular fraction often used to study metabolism.)

The next data set relates to HCC1806 Cells. Description: HCC1806 Cell Viability Assay (CellTiter-Glo). The format is cell-based. The conditions noted are these: Homo sapiens, 144 h, 6 days incubation, read-out: HCC1806 CTG IC50. Here is the method: as §1, with “HCC1806 Cells” for “OVCAR3 Cells”, “Cat #CRL-2335)” for “Cat #HTB-161)”, “of 500” for “of 2000”, “media (RPMI1640+10% FBS).” for “media (RPMI1640+20% FBS+0.01 mg/mL human insulin).”, “blank wells” for “blank well”, “at 37° C.,” for “at 37 C,”

Another data set can be described thus: Mouse PK Assay. The format is in vivo. The conditions noted are these: plasma, male BALB/c mouse; for MRT: IV; for half-life: single oral dose 5 mg/kg, read-out: PO T1/2 (converted).
The next data set addresses T1, P450 2C9 (Homo sapiens, UniProt P11712).
T1 construct: incubation with known industry-accepted CYP450 substrates, test articles and microsomes (HLM); from tissue; host or cells: liver microsomes (HLM)
The data set is described as follows: In Vitro Cytochrome P450 Inhibition Study. The format is in vitro ADME. The conditions noted are these: human liver microsomes (HLM), test compound 0.137 μM to 10 μM, 10 min at 37 °C. How it is done: CYP inhibition was evaluated by monitoring corresponding metabolite decrease after incubation with known industry-accepted CYP450 substrates, test articles and microsomes (HLM).
Eight reaction wells with 30 μL of a solution containing 100 mM potassium phosphate, pH 7.4 and 1:3 serial dilutions of the test compound were prepared along with eight wells of 1:3 serial dilutions of Sulfaphenazole (a positive control inhibitor). The assay plates were pre-warmed after 15 μL of probe substrate was added into appropriate wells. Then the reactions were initiated by adding 15 μL of a pre-warmed 8 mM NADPH solution resulting in a final NADPH concentration of 2 mM. The concentrations of test compound ranged from 0.137 μM to 10 μM. A zero time-point control reaction was prepared by adding 135 μL acetonitrile (ACN) containing tolbutamide (200 ng/mL) as internal standard (IS) to 30 μL. of the reaction solution to inactivate the enzymes before adding the probe substrate. A control reaction with no inhibitor was also prepared. After a suitable incubation at 37° C., 10 min, the reactions were terminated by the addition of 135 μL ACN containing IS. The reactions were prepared and analyzed for the metabolite forms of the probe substrate using LC-MS/MS.

T1 sequence (P11712 whole entry): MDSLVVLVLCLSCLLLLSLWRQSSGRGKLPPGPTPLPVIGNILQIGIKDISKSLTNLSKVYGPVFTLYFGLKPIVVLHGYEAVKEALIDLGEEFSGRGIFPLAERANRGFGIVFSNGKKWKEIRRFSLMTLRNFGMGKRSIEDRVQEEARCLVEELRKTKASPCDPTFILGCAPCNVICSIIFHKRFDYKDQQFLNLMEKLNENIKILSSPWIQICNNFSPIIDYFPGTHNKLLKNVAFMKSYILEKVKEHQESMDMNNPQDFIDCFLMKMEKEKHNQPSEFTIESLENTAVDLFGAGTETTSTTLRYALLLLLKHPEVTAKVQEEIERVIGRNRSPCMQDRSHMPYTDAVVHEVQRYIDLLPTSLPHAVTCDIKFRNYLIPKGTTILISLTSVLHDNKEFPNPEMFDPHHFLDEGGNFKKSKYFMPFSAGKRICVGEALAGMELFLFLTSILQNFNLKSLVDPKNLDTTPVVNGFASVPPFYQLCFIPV

In the case of `O=C1c2ccc(NS(=O)(=O)CCO)cc2C2(CCC3(CC3)CC2)CN1c1ccnc(NC2CCC(F)(F)C2)n1` (single isomer, unassigned) [Compound 71], the IC50 in the data set on OVCAR3 Cells is below 200 nM. For the same molecule, the fraction unbound at 6 hr, 1 μM in data set [1] is 0.0014.

Consider `N#Cc1ccc(N2CC3(CCC4(CC4)CC3)c3cc(NS(=O)(=O)CCO)ccc3C2=O)nc1NC1CCC(F)(F)C1` (single isomer, unassigned) [Compound 110], for which, in data set [2], the half-life at 1 μM stood at 2.52 h and the CLint scaled at 1 μM was below 12.4 mL/min/kg.

Regarding `O=C1c2ccc(NS(=O)(=O)CCO)cc2C2(CCC3(CC3)CC2)CN1c1ccnc(N2CCC(F)(F)CC2)n1` [Compound 1], the IC50 in the data set on HCC1806 Cells was below 200 nM. Further, the IC50 in the data set on OVCAR3 Cells was below 200 nM. In the data set “Mouse PK Assay”, the MRT was found to be 7.5 h and the half-life is 4.8 h.

For `O=C(Nc1ccc2c(c1)ncn2CC(F)(F)F)c1ccc(NS(=O)(=O)CCO)cc1N1CCC2(CC1)CC2` [Compound 3], the IC50 with HCC1806 Cells and in the data set on OVCAR3 Cells was above 2000 nM throughout.

In the case of `Cc1cc(NC(=O)c2ccc(NS(=O)(=O)CCO)cc2C2=CCC3(CC2)CC3)nc(N2CCC(F)(F)CC2)n1` [Compound 6], the IC50 in the data set on HCC1806 Cells and in the data set on OVCAR3 Cells was below 200 nM throughout.

Turning to `CN1CCOc2ccc(NC(=O)c3ccc(NS(=O)(=O)CCO)cc3N3CCC4(CC3)CC4)nc21` [Compound 7], the IC50 with HCC1806 Cells is above 2000 nM.

In the case of `O=C1c2ccc(NS(=O)(=O)CCO)cc2C2(CCC3(CC3)CC2)CN1c1ccnc(N2CCC(F)(F)C2)n1` [Compound 12], the 50% inhibitory concentration (IC50) in the data set on HCC1806 Cells and in the data set on OVCAR3 Cells was 200 to 2000 nM throughout.

In the case of `O=C1c2ccc(NS(=O)(=O)CCO)cc2C2(CCC3(CC3)CC2)CN1c1ccnc(NC2CC(F)(F)C2)n1` [Compound 21], the IC50 in the data set on OVCAR3 Cells was below 200 nM. In addition, in data set [1], the fraction unbound at 6 hr, 1 μM came out at 0.002.

As to `O=C1c2ccc(NS(=O)(=O)CCO)cc2C2(CCC3(CC3)CC2)CN1c1cccc(N2CCC3CC32)n1` (stereo not shown) [Compound 26], the IC50 with HCC1806 Cells and with OVCAR3 Cells was 200 to 2000 nM throughout.

With `O=C1c2ccc(NS(=O)(=O)CCO)cc2C2(CCC3(CC3)CC2)CN1c1ccc2c(n1)N1CCC(F)(F)CC1CO2` (stereo not shown) [Compound 31], the IC50 in the data set on HCC1806 Cells and in the data set with OVCAR3 Cells was 200 to 2000 nM throughout.

For `CN(c1cccc(N2CC3(CCC4(CC4)CC3)c3cc(NS(=O)(=O)CCO)ccc3C2=O)n1)C1CC(F)(F)C1` [Compound 34], the IC50 in the data set on HCC1806 Cells and in the data set on OVCAR3 Cells was below 200 nM throughout.

For the molecule `N#Cc1ccc(N2CC3(CCC4(CC4)CC3)c3cc(NS(=O)(=O)CCO)ccc3C2=O)nc1NC1CC(F)(F)C1` [Compound 56], the IC50 in the data set with OVCAR3 Cells was below 200 nM. Also, in data set [2], the half-life at 1 μM stood at 2.37 h and the CLint scaled at 1 μM is below 12.4 mL/min/kg.

For `N#Cc1ccc(N2CC3(CCC4(CC4)CC3)c3cc(NS(=O)(=O)CCO)c(F)cc3C2=O)nc1N1CCC(F)(F)CC1` [Compound 75], in “Mouse PK Assay”, the MRT turned out to be 8 h and the half-life is 6.3 h.

Turning to `N#Cc1ccc(N2CC3(CCC4(CC4)CC3)c3cc(NS(=O)(=O)CCO)ncc3C2=O)nc1N1CCC(F)(F)CC1` [Compound 80], the IC50 is above 10000 nM at P450 2C9 and below 200 nM in the data set on OVCAR3 Cells.

Turning to `CC1(C)CCC2(CC1)CN(c1ccc(C#N)c(N3CCC(F)(F)CC3)n1)C(=O)c1ccc(NS(=O)(=O)CCO)cc12` [Compound 90], the half-maximal inhibitory concentration (IC50) at P450 2C9 is above 10000 nM; in the data set on OVCAR3 Cells, below 200 nM.

Regarding `CC1(C)CCC2(CC1)CN(c1ccc(C#N)c(NC3CC(F)(F)C3)n1)C(=O)c1ccc(NS(=O)(=O)CCO)cc12` [Compound 95], the IC50 with OVCAR3 Cells is below 200 nM. In data set [2], this molecule came in with a half-life at 1 μM of 1.98 h and a CLint scaled at 1 μM of 14.6 mL/min/kg.

The molecule `N#Cc1ccc(N2CC3(CCC4(CCC4)CC3)c3cc(NS(=O)(=O)CCO)ccc3C2=O)nc1N1CCC(F)(F)CC1` [Compound 116] yielded an IC50 against P450 2C9 of 6700 nM. In addition, the IC50 with OVCAR3 Cells is below 200 nM. Also, in the data set “Mouse PK Assay”, the MRT was 6.9 h and the half-life was 4.6 h.

For the molecule `CCS(=O)(=O)Nc1ccc2c(c1)C1(CCC3(CC3)CC1)CN(c1ccc(C#N)c(S(=O)(=O)NC(C)(C)C)c1)C2=O` [Compound 120], the IC50 with OVCAR3 Cells was below 200 nM. Moreover, the fraction unbound at 6 hr, 1 μM in data set [1] was found to be 0.0122.

For the molecule `COCCOc1ccc(N2CC3(CCC4(CC4)CC3)c3cc(NS(=O)(=O)CCO)ccc3C2=O)nc1N1CCC(F)(F)CC1` [Compound 136], the IC50 against P450 2C9 is above 10000 nM; in the data set with OVCAR3 Cells it was below 200 nM.

As to `CN1CCN(c2ccc(N3CC4(CCC5(CC5)CC4)c4cc(NS(=O)(=O)CCO)ccc4C3=O)nc2N2CCC(F)(F)CC2)C(=O)C1` [Compound 178], the IC50 in the data set on OVCAR3 Cells is below 200 nM.

For `CN1CCC(c2ccc(N3CC4(CCC5(CC5)CC4)c4cc(NS(=O)(=O)CCO)ccc4C3=O)nc2N2CCC(F)(F)CC2)CC1` [Compound 179], the IC50 with OVCAR3 Cells lay within 200 to 2000 nM.

Regarding `O=C1c2ccc(NS(=O)(=O)CCO)cc2C2(CCC3(CC3)CC2)CN1c1ccc(-c2cc[nH]n2)c(N2CCC(F)(F)CC2)n1` [Compound 180], the IC50 in the data set on OVCAR3 Cells is below 200 nM.
